According to patent publication US20250312345A1, “NON-COVALENT INHIBITORS OF THE MAIN PROTEASE OF SARS-COV-2 AND METHODS OF USE” (YALE UNIVERSITY, priority 2022, published 2025):
Read-outs that look alike come from different tables or passages of the source.

Experiments:
SARS-CoV-2 M^pro = SARS-CoV-2 M^pro (Severe acute respiratory syndrome coronavirus 2, UniProt P0DTD1); experiment: biochemical; format: biochemical
[1] = Thermodynamic aqueous solubility, shake-flask; format: physicochemical; settings: 48 h
Description: The calibration and measurement (after 48 h of stirring) were performed on the same day.

Vero E6 cells [2] = settings: cited from earlier work
[3] = test system: normal human bronchial epithelial cells (NHBE); settings: cited from earlier work
PAMPA assay = settings: PBS pH 7.4, 5% DMSO, 18 hours, room temperature
SARS-CoV-2 replicon [4] = experiment: microbe, parasite or virus in culture; format: cell-based; settings: for IC50: read-out: calculated IC50, compound alone
SARS-CoV-2 replicon [5] = format: cell-based
Vero E6 cells [6] = settings: African green monkey
[7] = test system: normal human bronchial epithelial cells (NHBE); settings: for CC50: human
SARS-CoV-2 replication = experiment: Serum and lung tissue extracts tested on SARS-CoV-2 replication in cell culture; format: cell-based; settings: extracts of mice dosed with compound 61
[8] = test system: panel of 35 targets including CYP450 isoforms, ions channels, receptors; experiment: In vitro pharmacological profiling against targets for adverse drug reactions; settings: percentage inhibition at 10 μM
Description: (§1) Rows represent compounds tested and columns represent targets. Percentage inhibition at 10 μM concentration of the compounds is color-coded. A panel of 35 targets including CYP450 isoforms, ions channels, receptors examined for off-target effects.

HERG ion channel = HERG ion channel (Homo sapiens, UniProt Q12809); experiment: In vitro pharmacological profiling, HERG; settings: at high concentrations
Description: as §1

[9] = Britton-Robinson buffer pH 6.5, shake-flask, 21-22° C.
[10] = 13 combined with remdesivir, MacSynergy II
[11] = read-out: CC50 Vero E6, Table 3, marked g: Zhang et al., ACS Cent. Sci. 2021
[12] = read-out: CC50 NHBE, Table 3, marked g: Zhang et al., ACS Cent. Sci. 2021

Chain of HERG ion channel (Q12809 whole entry): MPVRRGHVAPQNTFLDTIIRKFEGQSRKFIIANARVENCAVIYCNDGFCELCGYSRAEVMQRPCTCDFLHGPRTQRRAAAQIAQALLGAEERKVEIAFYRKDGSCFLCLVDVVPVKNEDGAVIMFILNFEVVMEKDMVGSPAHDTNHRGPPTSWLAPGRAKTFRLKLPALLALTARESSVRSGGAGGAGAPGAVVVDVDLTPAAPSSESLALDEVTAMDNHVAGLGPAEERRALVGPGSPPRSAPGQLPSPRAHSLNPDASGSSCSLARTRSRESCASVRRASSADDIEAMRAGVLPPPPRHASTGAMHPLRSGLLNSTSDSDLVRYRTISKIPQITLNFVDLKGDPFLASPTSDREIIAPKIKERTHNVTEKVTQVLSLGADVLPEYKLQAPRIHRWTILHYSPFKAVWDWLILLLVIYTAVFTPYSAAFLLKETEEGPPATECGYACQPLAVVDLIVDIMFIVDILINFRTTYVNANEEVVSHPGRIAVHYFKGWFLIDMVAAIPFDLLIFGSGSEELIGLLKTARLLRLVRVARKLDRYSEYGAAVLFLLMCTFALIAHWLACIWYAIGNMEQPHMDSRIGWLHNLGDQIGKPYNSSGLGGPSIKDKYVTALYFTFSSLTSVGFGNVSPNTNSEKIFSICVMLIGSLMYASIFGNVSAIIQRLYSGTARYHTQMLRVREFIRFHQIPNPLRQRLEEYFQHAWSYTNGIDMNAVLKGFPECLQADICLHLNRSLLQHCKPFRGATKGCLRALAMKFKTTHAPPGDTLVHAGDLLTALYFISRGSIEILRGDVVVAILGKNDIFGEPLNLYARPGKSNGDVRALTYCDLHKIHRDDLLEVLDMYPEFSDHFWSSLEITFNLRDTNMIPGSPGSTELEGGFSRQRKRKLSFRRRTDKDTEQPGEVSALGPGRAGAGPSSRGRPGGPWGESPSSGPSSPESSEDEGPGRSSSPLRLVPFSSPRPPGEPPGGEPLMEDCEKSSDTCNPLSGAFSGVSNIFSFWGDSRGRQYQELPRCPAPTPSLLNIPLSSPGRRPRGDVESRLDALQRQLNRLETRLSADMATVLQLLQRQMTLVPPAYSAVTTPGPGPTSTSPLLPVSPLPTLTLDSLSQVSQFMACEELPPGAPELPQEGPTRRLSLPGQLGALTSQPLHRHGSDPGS

O=c1[nH]cc(-c2cc(-c3cc(Cl)cc(OCC4CC4)c3)c(=O)n(-c3cncc4ccccc34)c2)c(=O)[nH]1 [Cmpd 66]
IC50 (SARS-CoV-2 M^pro; Table 4): 0.04 ± 0.002 µM

O=c1[nH]cc(-c2cc(-c3cc(Cl)cc(OCc4ccccc4)c3)c(=O)n(-c3cccnc3)c2)c(=O)[nH]1 [Compound 21]
IC50 (SARS-CoV-2 M^pro; read-out: IC50 (μM), inhibition of SARS-CoV-2 M^pro, Table 1 and text, 100 nM M^pro, FRET substrate, triplicate): 0.128 µM

N#Cc1[nH]c(=O)ccc1-c1cc(-c2cccc(Cl)c2)c(=O)n(-c2cccnc2)c1 [Cmpd 23]
IC50 (SARS-CoV-2 M^pro; Table 4): ~10 µM

N#Cc1ccccc1-c1cc(-c2cc(Cl)cc(OCC3CC3)c2)c(=O)n(-c2cccnc2)c1 [Compound 39, 2-(3-(3-Chloro-5-(cyclopropylmethoxy)phenyl)-2-oxo-2H-[1,3′-bipyridin]-5-yl)benzonitrile]
aq. sol. [1, 9]: 3 ± 2 µg/mL | CC50 (Vero E6 cells [2]): > 100 µM | CC50 [3]: > 100 µM | PAMPA permeability (PAMPA assay): 4.27 ± 0.07 10^−6 cm/s

N#Cc1ccc(F)cc1-c1cc(-c2cc(Cl)cc(OCC3CC3)c2)c(=O)n(-c2cccnc2)c1 [Cmpd 56]
IC50 (SARS-CoV-2 M^pro; Table 4): 0.427 ± 0.027 µM

O=c1ccn(-c2cc(-c3cc(Cl)cc(OCC4CC4)c3)c(=O)n(-c3cccnc3)c2)c(=O)[nH]1 [Cmpd 54]
IC50 (SARS-CoV-2 M^pro; Table 4): 1.2 ± 0.1 µM

O=c1nc(NO)ccn1[C@@H]1O[C@H](CO)[C@@H](O)[C@H]1O [EIDD-1931, reference compound]
IC50 (SARS-CoV-2 replicon [4]): 2230 nM

CCCOc1cc(Cl)cc(-c2cc(-c3ccccc3C#N)cn(-c3cccnc3)c2=O)c1 [Compound 13, 2-(3-(3-Chloro-5-propoxyphenyl)-2-oxo-2H-[1,3′-bipyridin]-5-yl)benzonitrile]
factor of improvement in potency over 9 (SARS-CoV-2 M^pro; IC50 of 13 versus 9): ca. 30 | mean antagonism volume (SARS-CoV-2 replicon [5]; [10]): 0 M^2% | mean synergy volume (SARS-CoV-2 replicon [5]; [10]): 30.8 M^2% | combination behavior with remdesivir (SARS-CoV-2 replicon [5]; range of combinations of 13 and remdesivir, FIG. 3): statistically significant synergistic behavior | CC50 (Vero E6 cells [2]; [11]): 22 ± 7.2 µM | CC50 [3, 12]: 20 ± 2 µM

Cn1ccnc1COc1cc(Cl)cc(-c2cc(-c3ccccc3C#N)cn(-c3cccnc3)c2=O)c1 [Cmpd 59]
IC50 (SARS-CoV-2 M^pro; Table 4): ~0.194 µM

O=c1[nH]cc(-c2cc(-c3cc(Cl)cc(OCc4ocnc4C(F)(F)F)c3)c(=O)n(-c3cccnc3)c2)c(=O)[nH]1 [compound 62]
CC50 (Vero E6 cells [6]): > 100 µM | CC50 [7]: > 100 µM | PAMPA permeability (PAMPA assay): 0.57 ± 0.09 10^−6 cm/s

Cn1cc(-c2cc(-c3cc(Cl)cc(OCc4scnc4C(F)(F)F)c3)c(=O)n(-c3cccnc3)c2)c(=O)[nH]c1=O [compound 64]
aq. sol. [1, 9]: 24.8 ± 1.4 µg/mL | CC50 (Vero E6 cells [6]): > 100 µM | CC50 [7]: > 100 µM | PAMPA permeability (PAMPA assay): 1.16 ± 0.32 10^−6 cm/s

Cn1cc(-c2cc(-c3cc(Cl)c(F)c(OCc4ccccc4Cl)c3)c(=O)n(-c3cccnc3)c2)c(=O)[nH]c1=O [Compound 61]
combination effect with EIDD-1931 (SARS-CoV-2 replicon [5]; combination of EIDD-1931 and compound 61, FIG. 6): synergistic effect | inhibition of SARS-CoV-2 replication by serum and lung tissue extracts (SARS-CoV-2 replication): exhibited inhibition | off-target effects [8]: no significant off-target effects | inhibition of HERG ion channel (HERG ion channel): minimal inhibition | aq. sol. [1, 9]: 116.5 ± 8.8 µg/mL | CC50 (Vero E6 cells [6]): > 32.5 µM | CC50 [7]: > 32.5 µM | CC50 (in vitro): > 32 µM

Cc1ocnc1COc1cc(Cl)cc(-c2cc(-c3c[nH]c(=O)[nH]c3=O)cn(-c3cccnc3)c2=O)c1 [Cmpd 49]
aq. sol. [1, 9]: 7.6 ± 0.7 µg/mL

N#Cc1ccccc1-c1cc(-c2cc(Cl)cc(Cl)c2)c(=O)n(-c2cccnc2)c1 [Compound 9, 2-(3-(3,5-Dichlorophenyl)-2-oxo-2H-[1,3′-bipyridin]-5-yl)benzonitrile]
IC50 (SARS-CoV-2 replicon [4]; Severe acute respiratory syndrome coronavirus 2, BHK): 93.8 nM

O=c1c(-c2cc(Cl)cc(OCC3CC3)c2)cc(-c2ccc(F)cc2F)cn1-c1cccnc1 [Cmpd 55]
IC50 (SARS-CoV-2 M^pro; Table 4): ~10 µM

N#Cc1ccccc1-c1cc(-c2cc(Cl)cc(Cl)c2)c(=O)n(-c2ccc[n+]([O-])c2)c1 [Cmpd 11]
IC50 (SARS-CoV-2 M^pro; Table 4): 5 to 20 µM

O=c1ccn(-c2cc(-c3ccccc3)c(=O)n(-c3cccnc3)c2)c(=O)[nH]1 [Cmpd 1]
IC50 (SARS-CoV-2 M^pro; Table 4): 100 µM

Cc1ocnc1COc1cc(Cl)cc(-c2cc(-c3ccccc3C#N)cn(-c3cccnc3)c2=O)c1 [compound 50]
aq. sol. [1, 9]: 13.1 ± 0.3 µg/mL | PAMPA permeability (PAMPA assay): 3.04 ± 0.09 10^−6 cm/s

Cn1cc(-c2cc(-c3cc(Cl)cc(OCc4ocnc4C(F)(F)F)c3)c(=O)n(-c3cccnc3)c2)c(=O)[nH]c1=O [Cmpd 65]
aq. sol. [1, 9]: 34.5 ± 0.3 µg/mL

CN(C)c1ccc(C#N)c(-c2cc(-c3cc(Cl)cc(OCC4CC4)c3)c(=O)n(-c3cccnc3)c2)c1 [Cmpd 58]
IC50 (SARS-CoV-2 M^pro; Table 4): 1.3 ± 0.2 µM

COc1ccc(-c2cc(-c3cccc(Cl)c3)c(=O)n(-c3cccnc3)c2)c(C#N)n1 [Cmpd 22]
IC50 (SARS-CoV-2 M^pro; Table 4): 10 to 100 µM

N#Cc1cccc(-c2cc(-c3c[nH]c(=O)[nH]c3=O)cn(-c3cccnc3)c2=O)c1 [Cmpd 19]
IC50 (SARS-CoV-2 M^pro; Table 4): ~10 µM

Cn1cc(-c2cc(-c3cc(Cl)cc(OCCC(F)(F)F)c3)c(=O)n(-c3cccnc3)c2)c(=O)[nH]c1=O [compound 60]
aq. sol. [1, 9]: 57.0 ± 0.4 µg/mL | CC50 (Vero E6 cells [6]): > 100 µM | CC50 [7]: ~95 µM

O=c1[nH]cc(-c2cc(-c3cc(Cl)cc(OCc4ccc(F)cc4Cl)c3)c(=O)n(-c3cccnc3)c2)c(=O)[nH]1 [Compound 48, 5-(3-(3-Chloro-5-((2-chloro-4-fluorobenzyl)oxy)phenyl)-2-oxo-2H-[1,3′-bipyridin]-5-yl)pyrimidine-2,4(1H,3H)-dione]
EC50 (SARS-CoV-2 replicon [4]; Table 3): 120 ± 0.2 µM | aq. sol. ([1]; pH 6.5): 25.0 ± 0.1 µg/mL | CC50 (Vero E6 cells [2]): 22 ± 8 µM | CC50 [3]: 25 ± 5 µM

CCNC(=O)COc1cc(Cl)cc(-c2cc(-c3ccccc3C#N)cn(-c3cccnc3)c2=O)c1 [Cmpd 33]
IC50 (SARS-CoV-2 M^pro; Table 4): 0.5 to 1 µM

CCC(CC)COC(=O)[C@H](C)N[P@](=O)(OC[C@H]1O[C@@](C#N)(c2ccc3c(N)ncnn23)[C@H](O)[C@@H]1O)Oc1ccccc1 [remdesivir, reference compound]
CC50 (Vero E6 cells [2]; [11]): 72 ± 28 µM | CC50 [3, 12]: 41 ± 2 µM

N#Cc1ccccc1-c1cc(-c2cc(Cl)cc(OCCC(F)(F)F)c2)c(=O)n(-c2cccnc2)c1 [Compound 47, 2-(3-(3-Chloro-5-(3,3,3-trifluoropropoxy)phenyl)-2-oxo-2H-[1,3′-bipyridin]-5-yl)benzonitrile]
cytotoxicity towards NHBE cells [7]: more cytotoxic

O=c1[nH]cc(-c2cc(-c3cc(Cl)cc(OCc4scnc4C(F)(F)F)c3)c(=O)n(-c3cccnc3)c2)c(=O)[nH]1 [compound 63]
CC50 (Vero E6 cells [6]): > 100 µM | CC50 [7]: > 100 µM

COc1cc(F)cc(-c2cc(-c3c[nH]c(=O)[nH]c3=O)cn(-c3cccnc3)c2=O)c1 [Cmpd 20]
IC50 (SARS-CoV-2 M^pro; Table 4): 10 to 100 µM

N#Cc1ccccc1-c1cc(-c2cccc(Cl)c2)c(=O)n(-c2ccc[n+]([O-])c2)c1 [Cmpd 10]
IC50 (SARS-CoV-2 M^pro; Table 4): 15.6 ± 2.37 µM

Cn1cc(-c2cc(-c3cc(Cl)cc(OCC4CC4)c3)c(=O)n(-c3cccnc3)c2)c(=O)[nH]c1=O [compound 57]
aq. sol. [1, 9]: 14.2 ± 0.7 µg/mL | CC50 (Vero E6 cells [6]): 82 µM | CC50 [7]: > 100 µM

Cc1scnc1COc1cc(Cl)cc(-c2cc(-c3c[nH]c(=O)[nH]c3=O)cn(-c3cccnc3)c2=O)c1 [compound 51]
CC50 (Vero E6 cells [6]): > 100 µM | CC50 [7]: 22 µM

O=c1[nH]cc(-c2cc(-c3cc(Cl)c(F)c(OCc4ccccc4Cl)c3)c(=O)n(-c3cccnc3)c2)c(=O)[nH]1 [compound 43]
aq. sol. [1, 9]: 21.8 ± 0.9 µg/mL | CC50 (Vero E6 cells [6]): > 80 µM | CC50 [7]: > 95 µM | PAMPA permeability (PAMPA assay): 0.73 ± 0.05 10^−6 cm/s

COc1cc(CCOc2cc(Cl)cc(-c3cc(-c4ccccc4C#N)cn(-c4cccnc4)c3=O)c2)cc(OC)c1 [Cmpd 30]
IC50 (SARS-CoV-2 M^pro; Table 4): > 1 µM
